Data reported in patent US11584744B2 (UNIVERSITY OF WASHINGTON, priority 2017, dated 2023).
≈ marks a conversion by molar mass, not a printed value. Where “and” joins values, the source holds several entries; their conditions need not be identical. Equal entries are not always repeated. Where two headings read alike, the source gives them in different places.

Experiments:
[1] = system: S. aureus MRSA (ATCC 33591); assay: MIC susceptibility testing; type: cell-based, Staphylococcus aureus; settings: for MIC: Staphylococcus aureus, read-out: (G) MRSA (ATCC33591) MIC
How it was run: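 CLSI broth microdilution in triplicate, 5×10^5 CFU/mL final, ≤0.5% DMSO; MHB for S. aureus, CA-MHB for E. coli and E. faecium, CA-MHB plus 3% laked horse blood for S. pyogenes (5% CO2).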

[2] = system: S. aureus MSSA (ATCC 29213); assay: MIC susceptibility testing; type: cell-based, Staphylococcus aureus; settings: for MIC: Staphylococcus aureus, read-out: (F) S. aureus (ATCC 29213) MIC
[3] = system: E. faecium VRE (ATCC 51559); assay: MIC susceptibility testing; type: cell-based, Enterococcus faecium; settings: Enterococcus faecium, read-out: (I) E. faecium (ATCC 51559) MIC
Source text: Media and culture conditions. Mueller Hinton broth (MHB), cation adjusted Mueller Hinton broth (CA-MHB), and Brain Heart Infusion broth (BHI) were purchased from Becton Dickinson (Franklin Lakes, N.J.). Tryptic soy agar (TSA) plates, TSA with 5% sheep blood plates, and CA-MHB with 3% laked horse blood were purchased from Remel (San Diego, Calif.). MHB was used to assay all Staphylococcus aureus strains. CA-MHB was used for Staphylococcus epidermidis, Enterococcus faecalis, Enterococcus faecium, Escherichia coli, and Pseudomonas aeruginosa. CA-MHB supplemented with 3% laked horse blood was used for Streptococcus pneumoniae and Streptococcus pyogenes. Staphylococcus, Enterococcus, Escherichia, and Pseudomonas strains were cultured at 37° C. with ambient air. Streptococcus strains were cultured in 37° C. with 5% CO2. Separate conditions for radiolabeled precursor uptake assays are described below.
Susceptibility testing: Minimum inhibitory concentration (MIC) determinations were performed in triplicate in 96-well round bottom microtiter plates (Corning, Corning N.Y.) as described by the Clinical and Laboratory Standards Institute (CLSI). Serial two-fold dilutions of compounds were added to plates in 50 μL volumes. An additional 50 μL of media containing bacterial cells (1×10^6 CFUs/mL) was then added to each well. Maximum DMSO concentrations were 0.5%. Plates were incubated at 37° C. for at least 18 h before reading the susceptibility result by optical absorbance (OD600) using a BioTek ELx800. The lowest concentration causing ≥90% growth inhibition compared to the untreated control was recorded as the MIC (and also corresponded to the visual MIC). MICs were measured at least twice and the higher value (if different) was recorded herein.

[4] = molecular target: T1, MetRS (T. brucei) (Trypanosoma brucei brucei, UniProt Q38C91); assay: MetRS (T. brucei) enzyme inhibition; type: biochemical
T1 sequence (Q38C91 1-773): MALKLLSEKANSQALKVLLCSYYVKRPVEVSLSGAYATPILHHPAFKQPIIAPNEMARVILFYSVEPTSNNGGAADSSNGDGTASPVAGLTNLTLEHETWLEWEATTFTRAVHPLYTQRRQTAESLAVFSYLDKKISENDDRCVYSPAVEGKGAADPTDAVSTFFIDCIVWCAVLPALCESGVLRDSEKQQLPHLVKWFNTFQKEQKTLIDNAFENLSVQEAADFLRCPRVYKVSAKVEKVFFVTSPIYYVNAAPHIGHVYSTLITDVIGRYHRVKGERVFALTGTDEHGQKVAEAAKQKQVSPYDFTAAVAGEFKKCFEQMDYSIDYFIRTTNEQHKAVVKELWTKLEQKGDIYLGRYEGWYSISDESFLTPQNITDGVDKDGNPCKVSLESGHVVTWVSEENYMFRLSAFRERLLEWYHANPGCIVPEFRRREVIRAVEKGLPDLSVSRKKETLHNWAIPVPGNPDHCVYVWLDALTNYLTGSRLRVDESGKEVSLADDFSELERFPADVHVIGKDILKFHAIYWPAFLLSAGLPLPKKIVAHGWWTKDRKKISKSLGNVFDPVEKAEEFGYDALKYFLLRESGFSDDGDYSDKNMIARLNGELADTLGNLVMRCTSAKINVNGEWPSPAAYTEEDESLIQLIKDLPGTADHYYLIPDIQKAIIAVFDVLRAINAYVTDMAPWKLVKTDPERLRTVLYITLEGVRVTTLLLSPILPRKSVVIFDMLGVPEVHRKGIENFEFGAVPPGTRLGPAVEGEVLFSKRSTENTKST

[5] = molecular target: MetRS (C. parvum) (Cryptosporidium parvum, UniProt Q5CVN0); assay: MetRS (C. parvum) enzyme inhibition; type: biochemical
MetRS (C. parvum), sequence (Q5CVN0 entry or part of it): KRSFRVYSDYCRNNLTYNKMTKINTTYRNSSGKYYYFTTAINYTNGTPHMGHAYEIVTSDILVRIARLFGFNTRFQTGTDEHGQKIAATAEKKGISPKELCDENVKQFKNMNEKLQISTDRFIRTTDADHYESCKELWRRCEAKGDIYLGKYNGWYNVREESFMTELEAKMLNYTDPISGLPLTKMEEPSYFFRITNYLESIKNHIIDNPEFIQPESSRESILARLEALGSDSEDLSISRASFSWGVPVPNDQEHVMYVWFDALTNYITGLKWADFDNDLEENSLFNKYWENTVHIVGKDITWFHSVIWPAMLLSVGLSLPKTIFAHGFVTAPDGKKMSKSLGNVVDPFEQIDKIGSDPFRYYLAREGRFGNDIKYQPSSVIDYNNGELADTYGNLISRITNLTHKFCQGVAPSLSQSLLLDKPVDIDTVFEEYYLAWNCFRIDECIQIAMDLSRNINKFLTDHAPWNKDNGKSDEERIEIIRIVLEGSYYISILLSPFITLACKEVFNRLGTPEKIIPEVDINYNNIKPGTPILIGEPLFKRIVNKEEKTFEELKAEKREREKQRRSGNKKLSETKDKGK

[6] = system: T. brucei; assay: T. brucei growth inhibition; type: cell-based, Trypanosoma brucei; settings: Trypanosoma brucei; read-out: (D) T. brucei EC50
[7] = system: T. cruzi; assay: T. cruzi growth inhibition; type: cell-based, Trypanosoma cruzi; settings: read-out: (E) T. cruzi EC50
[8] = system: C. parvum; assay: C. parvum growth inhibition; type: cell-based, Cryptosporidium parvum; settings: read-out: (J) C. parvum EC50
[9] = read-out: (C) MetRS (C. parvum) IC50

COc1ccc(-c2cncc3nc(Cc4nc5nc(Cl)ccc5[nH]4)cn23)c(Cl)c1 [Compound 2156, 2-({5-chloro-1H-imidazo[4,5-b]pyridin-2-yl}methyl)-5-(2-chloro-4-methoxyphenyl)imidazo[1,2-a]pyrazine]
MIC ([1]; MRSA ATCC33591): 0.285 µg/mL (≈ 0.67 µM)
(F) S. aureus (ATCC 29213) MIC ([2]; S. aureus ATCC 29213): 0.946 µg/mL
MIC ([2]; S. aureus ATCC 29213): 1.1 µg/mL (≈ 2.59 µM)
MIC ([3]; E. faecium ATCC 51559): 1.49 µg/mL (≈ 3.5 µM)
IC50 [4]: < 40 nM
IC50 [5, 9]: < 40 nM
EC50 [6]: 32 nM
EC50 ([7]; Trypanosoma cruzi): 319 nM
EC50 ([8]; Cryptosporidium parvum): 1290 nM

COc1ccc(-c2ccc(NC(C)=O)c3nc(Cc4nc5cc(Cl)ccc5[nH]4)cn23)c(Cl)c1 [Compound 2180, N-{2-[(6-chloro-1H-1,3-benzodiazol-2-yl)methyl]-5-(2-chloro-4-methoxyphenyl)imidazo[1,2-a]pyridin-8-yl}acetamide]
MIC ([1]; MRSA ATCC33591): 0.515 µg/mL (≈ 1.07 µM)
MIC ([2]; S. aureus ATCC 29213): 0.362 µg/mL (≈ 0.754 µM)
MIC ([3]; E. faecium ATCC 51559): 0.357 µg/mL (≈ 0.743 µM)
IC50 [4]: < 40 nM
IC50 [5, 9]: < 40 nM
EC50 [6]: 18.5 nM
EC50 ([7]; Trypanosoma cruzi): 179 nM
EC50 ([8]; Cryptosporidium parvum): 656 nM
EC50 [8]: 640 nM

Clc1ccc(Cc2cn(Cc3nc4nc(Cl)ccc4[nH]3)cn2)c(Cl)c1 [Compound 2189, 1-({5-chloro-1H-imidazo[4,5-b]pyridin-2-yl}methyl)-4-[(2,4-dichlorophenyl)methyl]-1H-imidazole]
MIC [1]: 0.596 µg/mL (≈ 1.52 µM)
MIC [2]: 0.676 µg/mL (≈ 1.72 µM)
MIC [3]: 0.704 µg/mL (≈ 1.79 µM)
IC50 [4]: < 40 nM
IC50 [5]: < 40 nM
EC50 [6]: 7.9 nM
EC50 ([7]; Trypanosoma cruzi): 156 nM
EC50 ([8]; Cryptosporidium parvum): 2000 nM

O=C(c1cn(Cc2nc3ccc(Cl)nc3[nH]2)c(=O)[nH]1)c1ccc(Cl)cc1Cl [Compound 2201, 1-({5-chloro-1H-imidazo[4,5-b]pyridin-2-yl}methyl)-4-(2,4-dichlorobenzoyl)-2,3-dihydro-1H-imidazol-2-one]
MIC ([1]; MRSA ATCC33591): 0.701 µg/mL (≈ 1.66 µM)
(F) S. aureus (ATCC 29213) MIC ([2]; S. aureus ATCC 29213): 0.946 µg/mL
MIC ([2]; S. aureus ATCC 29213): 0.863 µg/mL (≈ 2.04 µM)
MIC ([3]; E. faecium ATCC 51559): 0.979 µg/mL (≈ 2.32 µM)
IC50 [4]: < 40 nM
IC50 [5, 9]: 72.2 nM
EC50 [6]: 4.88 nM
EC50 ([7]; Trypanosoma cruzi): 207 nM
EC50 ([8]; Cryptosporidium parvum): > 2000 nM

CCn1c(C(=O)c2ccc(Cl)cc2Cl)cn(Cc2nc3ccc(Cl)nc3[nH]2)c1=O [Compound 2203, 1-((5-chloro-3H-imidazo[4,5-b]pyridin-2-yl)methyl)-4-(2,4-dichlorobenzoyl)-3-ethyl-1,3-dihydro-2H-imidazol-2-one]
MIC ([1]; MRSA ATCC33591): 0.359 µg/mL (≈ 0.797 µM)
MIC ([2]; S. aureus ATCC 29213): 0.34 µg/mL (≈ 0.754 µM)
MIC ([3]; E. faecium ATCC 51559): 0.172 µg/mL (≈ 0.382 µM)
IC50 [4]: < 40 nM
IC50 [5, 9]: 99.4 nM
EC50 [6]: 1.73 nM
EC50 ([7]; Trypanosoma cruzi): 34.7 nM
EC50 [7]: 45.2 nM
EC50 ([8]; Cryptosporidium parvum): > 2000 nM

CCn1c(C(O)c2ccc(Cl)cc2Cl)cn(Cc2nc3nc(Cl)ccc3[nH]2)c1=O (stereo not drawn) [Compound 2204, 1-({5-chloro-1H-imidazo[4,5-b]pyridin-2-yl}methyl)-4-[(2,4-dichlorophenyl)(hydroxy)methyl]-3-ethyl-2,3-dihydro-1H-imidazol-2-one]
MIC ([1]; MRSA ATCC33591): 0.293 µg/mL (≈ 0.647 µM)
(F) S. aureus (ATCC 29213) MIC ([2]; S. aureus ATCC 29213): 0.927 µg/mL
MIC ([2]; S. aureus ATCC 29213): 1.11 µg/mL (≈ 2.45 µM)
MIC ([3]; E. faecium ATCC 51559): 0.167 µg/mL (≈ 0.369 µM)
IC50 [4]: 53 nM
IC50 [5, 9]: 82.5 nM
EC50 [6]: 6.38 nM
EC50 ([7]; Trypanosoma cruzi): 366 nM
EC50 ([8]; Cryptosporidium parvum): 1920 nM

COc1cc(Cl)c(-c2cnn3c2CN(Cc2nc4nc(Cl)ccc4[nH]2)CC3)cc1OC [Compound 2205, 5-chlor0-2-((3-(2-chloro-4,5-dimethoxyphenyl)-6,7-dihydropyrazolo[1,5-a]pyrazin-5(4H)-yl)methyl)-1H-imidazo[4,5-b]pyridine]
MIC ([1]; MRSA ATCC33591): 0.265 µg/mL (≈ 0.577 µM)
(F) S. aureus (ATCC 29213) MIC ([2]; S. aureus ATCC 29213): 0.441, μg/ml and 0.450 μg/ml
MIC ([2]; S. aureus ATCC 29213): 0.652 µg/mL (≈ 1.42 µM)
MIC ([3]; E. faecium ATCC 51559): 0.0839 µg/mL (≈ 0.183 µM)
IC50 [4]: < 40 nM
IC50 [5, 9]: 65.2 nM
EC50 [6]: 12.4 nM
EC50 ([7]; Trypanosoma cruzi): 109 nM
EC50 ([8]; Cryptosporidium parvum): > 2000 nM

COc1ccc(Cc2cn(Cc3nc4nc(Cl)ccc4[nH]3)c(=O)n2CC(C)(C)N)c(Cl)c1 [Compound 2208, 3-(2-amin0-2-methylpropyl)-1-({5-chloro-1H-imidazo[4,5-b]pyridin-2-yl}methyl)-4-[(2-chloro-4-methoxyphenyl)methyl]-2,3-dihydro-1H-imidazol-2-one]
MIC ([1]; MRSA ATCC33591): 1.8 µg/mL (≈ 3.79 µM)
(F) S. aureus (ATCC 29213) MIC ([2]; S. aureus ATCC 29213): 1.53 µg/mL
MIC ([2]; S. aureus ATCC 29213): 2.4 µg/mL (≈ 5.05 µM)
MIC ([3]; E. faecium ATCC 51559): 0.28 µg/mL (≈ 0.589 µM)
IC50 [4]: < 40 nM
IC50 [5, 9]: < 40 nM
EC50 ([7]; Trypanosoma cruzi): 297 nM
EC50 ([8]; Cryptosporidium parvum): > 2000 nM

CCn1c(Cc2ccc(Cl)cc2Cl)cn(Cc2nc3ccc(Cl)c(C#N)c3[nH]2)c1=O [Compound 2210, 6-chlor0-2-({4-[(2,4-dichlorophenyl)methyl]-3-ethyl-2-oxo-2,3-dihydro-1H-imidazol-1-yl}methyl)-1H-1,3-benzodiazole-7-carbonitrile]
MIC ([1]; MRSA ATCC33591): 0.298 µg/mL (≈ 0.647 µM)
MIC ([2]; S. aureus ATCC 29213): 0.285 µg/mL (≈ 0.619 µM)
MIC ([3]; E. faecium ATCC 51559): 0.166 µg/mL (≈ 0.36 µM)
IC50 [4]: < 40 nM
IC50 [5, 9]: < 40 nM
EC50 [6]: 6.72 nM
EC50 ([7]; Trypanosoma cruzi): 108 nM
EC50 ([8]; Cryptosporidium parvum): > 2000 nM

COc1ccc(-c2nccc3nn(Cc4nc5nc(Cl)ccc5[nH]4)cc23)c(Cl)c1 [Compound 2247, 2-({5-chloro-1H-imidazo[4,5-b]pyridin-2-yl}methyl)-4-(2-chloro-4-methoxyphenyl)-2H-pyrazolo[4,3-c]pyridine]
(G) MRSA (ATCC33591) MIC ([1]; MRSA ATCC33591): 1.58 µg/mL
MIC ([1]; MRSA ATCC33591): 1.46 µg/mL (≈ 3.43 µM)
(F) S. aureus (ATCC 29213) MIC ([2]; S. aureus ATCC 29213): 1.43 µg/mL
MIC ([2]; S. aureus ATCC 29213): 1.18 µg/mL (≈ 2.77 µM)
MIC ([3]; E. faecium ATCC 51559): 1.08 µg/mL (≈ 2.54 µM)
IC50 [5, 9]: 218 nM
EC50 [6]: 200 nM
EC50 ([7]; Trypanosoma cruzi): 1650 nM
EC50 ([8]; Cryptosporidium parvum): > 2000 nM
